No end group written: not given here.
Tested on: HEK293T
Assay: Mammalian cell cytotoxicity, WST-1, FBS-free medium
Format: cell-based, human
Details: HEK293T cells, mean ± SD, triplicated
Protocol: Two mammalian cell lines, including human embryonic kidney cells (HEK293T) and human breast cancer cells (MCF7) were cultured in Dulbecco’s modified Eagle’s medium (DMEM; Hyclone^TM, Logan, UT, United States) supplemented with 10% FBS (Hyclone^TM) and 1% penicillin/streptomycin (Hyclone^TM) and incubated at 37°C and 5% CO2 up to 80% confluence. Cellular adherence to the substratum was disrupted using Accutase (Innovative Cell Technologies, San Diego, CA, United States). In total, 1 × 10^4 to 4 × 10^4 cells in each well of a 96-well plate containing 8, 16, 32, and 64 μg/mL of ModoCath peptides were incubated for 24 h at 37°C and 5% CO2. Additionally, HEK293T cells were incubated in the FBS-free medium. Triton X 100 (Sigma Aldrich) was used as a positive control for complete cell lysis, and untreated cells were used as the negative control. After incubation, the medium was removed from the wells, and 10 μL of coloring solution (Cell Proliferation Reagent WST-1^TM; Sigma Aldrich) and 100 μL of DMEM (Hyclone^TM) were added to the wells in accordance with the manufacturer’s protocol. Absorbance was measured for each well at 440 nm (peptide-treated and control) and 650 nm (background) and recorded as the OD, using a microplate reader (xMark^TM spectrophotometer; Bio-Rad). Cell viability was calculated using the following equation:
(1) CellViability(%)=100×(ODpeptide-ODbackground)/(ODnegative-ODbackground)
All experiments were performed in triplicate.

Sequence: VKRTKRGARRGLTKVLKKIFGSIVKKAVSKGV [ΔModoCath1]
- Cell viability ± SD (%) Serum negative (peptide 8 ㎍/㎖): 109.5±9.8%
- Cell viability ± SD (%) Serum negative (peptide 16 ㎍/㎖): 103.7±6.9%
- Cell viability ± SD (%) Serum negative (peptide 32 ㎍/㎖): 69.5±7.9%
- Cell viability ± SD (%) Serum negative (peptide 64 ㎍/㎖): 55.9±4.4%

Sequence: WYQLIRTFGNLIHQKYRKLLEAYRKLRD [ΔModoCath5]
- Cell viability ± SD (%) Serum negative (peptide 8 ㎍/㎖): 98.6±6.5%
- Cell viability ± SD (%) Serum negative (peptide 16 ㎍/㎖): 63.5±5.2%
- Cell viability ± SD (%) Serum negative (peptide 32 ㎍/㎖): 39.3±7.6%
- Cell viability ± SD (%) Serum negative (peptide 64 ㎍/㎖): 34.0±1.6%

Source: publication PMC7063992, “Opossum Cathelicidins Exhibit Antimicrobial Activity Against a Broad Spectrum of Pathogens Including West Nile Virus” (Frontiers in Immunology, 2020)
